Results: patent publication US9809532B2, “Uses of histone acetyltransferase activators” (THE TRUSTEES OF COLUMBIA UNIVERSITY IN THE CITY OF NEW YORK, priority 2011, dated 2017)

Legend:
[1] = precipitated as soon as put in H2O; cited from earlier work
Sirtuin 1 = target: T1, Sirtuin 1 (Homo sapiens, UniProt Q96EB6); experiment: Sirtuin 1 activity assay (fluorescence)
T1 sequence (Q96EB6 1-747): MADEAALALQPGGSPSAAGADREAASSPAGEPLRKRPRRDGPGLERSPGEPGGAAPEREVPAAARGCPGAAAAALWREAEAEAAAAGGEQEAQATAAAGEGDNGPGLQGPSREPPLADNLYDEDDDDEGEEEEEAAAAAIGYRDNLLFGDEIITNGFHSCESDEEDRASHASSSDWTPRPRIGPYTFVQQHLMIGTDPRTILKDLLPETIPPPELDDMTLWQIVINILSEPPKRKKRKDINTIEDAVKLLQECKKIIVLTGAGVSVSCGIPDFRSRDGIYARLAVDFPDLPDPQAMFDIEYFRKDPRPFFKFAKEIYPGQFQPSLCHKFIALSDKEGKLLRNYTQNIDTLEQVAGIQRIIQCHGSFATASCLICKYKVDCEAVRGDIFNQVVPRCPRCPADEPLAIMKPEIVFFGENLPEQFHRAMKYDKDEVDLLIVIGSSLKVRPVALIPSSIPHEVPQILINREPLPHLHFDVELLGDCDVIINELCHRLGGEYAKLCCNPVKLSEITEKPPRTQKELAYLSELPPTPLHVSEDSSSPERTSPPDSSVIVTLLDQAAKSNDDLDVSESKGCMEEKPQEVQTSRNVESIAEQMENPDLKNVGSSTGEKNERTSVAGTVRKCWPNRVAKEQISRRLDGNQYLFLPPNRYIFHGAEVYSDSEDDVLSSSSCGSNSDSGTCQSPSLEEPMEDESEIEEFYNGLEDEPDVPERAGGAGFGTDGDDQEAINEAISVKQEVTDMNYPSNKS

Sirtuin 2 = target: T2, Sirtuin 2 (Homo sapiens, UniProt Q8IXJ6); experiment: Sirtuin 2 activity assay (fluorescence); settings: Sirtuin 2
T2 sequence (Q8IXJ6 1-389): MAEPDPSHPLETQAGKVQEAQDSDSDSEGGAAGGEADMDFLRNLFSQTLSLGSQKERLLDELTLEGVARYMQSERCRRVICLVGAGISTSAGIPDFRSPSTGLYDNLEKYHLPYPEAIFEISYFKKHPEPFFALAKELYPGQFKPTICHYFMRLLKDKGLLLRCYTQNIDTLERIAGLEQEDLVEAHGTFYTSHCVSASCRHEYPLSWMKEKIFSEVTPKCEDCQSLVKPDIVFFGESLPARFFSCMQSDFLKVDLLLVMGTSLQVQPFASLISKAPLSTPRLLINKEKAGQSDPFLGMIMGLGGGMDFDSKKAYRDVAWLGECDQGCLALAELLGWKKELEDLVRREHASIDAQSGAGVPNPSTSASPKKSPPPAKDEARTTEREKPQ

| Structure (SMILES) | solubility in water [1] | IC50 (Sirtuin 1) [µM] | IC50 (Sirtuin 2) [µM] |
| --- | --- | --- | --- |
| CCOc1ccccc1C(=O)Nc1ccc(Cl)c(C(F)(F)F)c1 [N-(4-chloro-3-trifluoromethyl-phenyl)-2-ethoxy-benzamide] | very poorly solubile in water | – | – |
| O=C(CCCCCCC(=O)Nc1ccccc1)NO [SAHA, reference compound] | – | > 10 | > 10 |
